≈ marks a conversion by molar mass, not a printed value.
Key:
Type in all cases: cell-based
[1] = test system: Aspergillus fumigatus AF293; assay: MIC, YAG medium; conditions: Aspergillus fumigatus, 24 h at 35° C, MIC banded into grades, read-out: MIC grade, A. fumigatus
Description: (§1) Between 1 and 5 mgs of compound were accurately weighed out into a sterile Eppendorf tube. The compound was dissolved in DMSO to give a solution containing 5 mg/mL. Tubes were stored at −20° C. until required.
(§2) On the day of testing thawed solutions were vortex mixed to ensure homogeneity. 30 μL of solution was removed and added to 570 μL of sterile water in a separate sterile Eppendorf. The thoroughly mixed solution was used to prepare a series of doubling dilutions in water, in a deep well plate. Thirteen replicate plates were prepared using a Minitrak by aspirating 20 μL from each well into eleven clear polystyrene 96 well plates.
(§3) Spores of Aspergillus spp. (Aspergillus fumigatus [two strains], Aspergillus terreus [two strains], Aspergillus niger and Aspergillus flavus) were harvested from cultures grown on Sabarauds agar for 5 days, and resuspended in PBS/Tween 80 to approx 1×10^7 cfu/mL. Each organism suspension was diluted in YAG medium (1% glucose, 1% ammonium chloride and 0.5% yeast extract) to 0.5−2×10^4 cfu/mL. 80 μL of an organism suspension was added to each well of the plate containing drug dilutions.
(§4) This produced MIC plates with a drug range 50-0.05 mg/L and organism inocula of 1−2×10^4 cfu/mL for Aspergillus spp. All plates were incubated for 24 h at 35° C. Growth was assessed by monitoring the optical density at 485 nm for each well. The MIC of a compound is the lowest drug concentration that inhibits growth of an organism by >70% compared with a drug free control. MICs are recorded as mg/L. In cases where the MIC of an organism is […] mg/L the MIC is repeated using a concentration range of 0.5-0.0005 mg/L.
(§5) The following organisms were tested: Aspergillus flavus, Aspergillus fumigatus AF293 and AF210, Aspergillus niger, Aspergillus terreus AT4 and AT49, Candida albicans, Candida glabrata, Candida krusei, Candida parapsilosis and Candida tropicalis.

[2] = test system: Aspergillus terreus AT4; assay: MIC, YAG medium; conditions: Aspergillus terreus, 24 h at 35° C, MIC banded into grades, read-out: MIC grade, A. terreus
Description: as §1, §2, §3, §4, §5

[3] = test system: Aspergillus niger; assay: MIC, YAG medium; conditions: Aspergillus niger, 24 h at 35° C, MIC banded into grades, read-out: MIC grade, A. niger
Description: as §1, §2, §3, §4, §5

[4] = test system: Aspergillus fumigatus AF210; assay: MIC, YAG medium; conditions: Aspergillus fumigatus, 24 h at 35° C, MIC banded into grades, read-out: MIC grade, A. fumigatus 210
Description: as §1, §2, §3, §4, §5

[5] = test system: Aspergillus flavus; assay: MIC, YAG medium; conditions: Aspergillus flavus, 24 h, 24 h at 35° C, MIC banded into grades, read-out: MIC grade, A. flavus
Description: as §1, §2, §3, §4, §5

[6] = test system: Aspergillus terreus AT49; assay: MIC, YAG medium; conditions: Aspergillus terreus, 24 h at 35° C, MIC banded into grades, read-out: MIC grade, A. terreus 49
Description: as §1, §2, §3, §4, §5

[7] = test system: Aspergillus fumigatus AF293; assay: MIC, RPMI medium; conditions: Aspergillus fumigatus, AF293, MIC banded into grades, read-out: MIC grade, A. fumigatus
Description: as §1, §2
(§6) Assays were also performed in RPMI medium for both Aspergillus spp. (strains described above) and Candida spp. (Candida albicans, Candida glabrata, Candida krusei, Candida parapsilosis and Candida tropicalis). To perform MIC tests in this medium, dilutions of compounds are prepared in microtitre plates as described above. Fungal strains to be tested are grown and harvested in an identical manner to that described above, and each organism suspension was diluted in RPMI medium, containing 2% glucose and 0.135 M MOPS buffer (pH 7.0) to 0.5-2×10^4 cfu/mL, rather than in YAG medium. 80 μL of an organism suspension was added to each well of the plate containing drug dilutions.
(§7) This produced MIC plates with a drug range 50-0.05 mg/L and organism inocula of 1−2×10^4 cfu/mL. All plates were incubated for 24-48 h at 35° C. Growth was assessed by monitoring the optical density at 485 nm for each well. The MIC of a compound is the lowest drug concentration that inhibits growth of an organism by >80% compared with a drug free control.
as §5

[8] = test system: Aspergillus terreus AT4; assay: MIC, RPMI medium; conditions: Aspergillus terreus, AT4, MIC banded into grades, read-out: MIC grade, A. terreus
Description: as §1, §2, §6, §7, §5

[9] = test system: Aspergillus niger; assay: MIC, RPMI medium; conditions: Aspergillus niger, MIC banded into grades, read-out: MIC grade, A. niger
Description: as §1, §2, §6, §7, §5

[10] = test system: Aspergillus fumigatus AF210; assay: MIC, RPMI medium; conditions: Aspergillus fumigatus, AF210, MIC banded into grades, read-out: MIC grade, A. fumigatus 210
Description: as §1, §2, §6, §7, §5

[11] = test system: Aspergillus flavus; assay: MIC, RPMI medium; conditions: Aspergillus flavus, MIC banded into grades, read-out: MIC grade, A. flavus
Description: as §1, §2, §6, §7, §5

[12] = test system: Aspergillus terreus AT49; assay: MIC, RPMI medium; conditions: Aspergillus terreus, AT49, MIC banded into grades, read-out: MIC grade, A. terreus 49
Description: as §1, §2, §6, §7, §5

Row | Compound | MIC [1] [µg/mL] | MIC [2] [µg/mL] | MIC [3] [µg/mL] | MIC [4] [µg/mL] | MIC [5] [µg/mL] | MIC [6] [µg/mL] | MIC [7] [µg/mL] | MIC [8] [µg/mL] | MIC [9] [µg/mL] | MIC [10] [µg/mL] | MIC [11] [µg/mL] | MIC [12] [µg/mL]
1 | Cc1cc(C)nc(N2CCN(c3ccc(NC(=O)C(=O)c4c(-c5ccccc5)cc(C)n4C)cc3COCCCN3CCOCC3)CC2)c1 [Example 10, 2-(1,5-Dimethyl-3-phenyl-1H-pyrrol-2-yl)-N-[4-[4-(4,6-dimethyl-pyridin-2-yl)-piperazin-1-yl]-3-(3-morpholin-4-yl-propoxymethyl)-phenyl]-2-oxo-acetamide] | > 10 | > 10 | > 10 | > 10 | 1 to 10 (≈ 1.5 to 15 µM) | 1 to 10 (≈ 1.5 to 15 µM) | > 10 | > 10 | > 10 | > 10 | > 10 | > 10
2 | Cc1cc(C)nc(N2CCN(c3ccc(NC(=O)C(=O)c4c(-c5ccccc5)cc(C)n4C)cc3Cl)CC2)c1 [Example 11, N-{3-Chloro-4-[4-(4,6-dimethyl-pyridin-2-yl)-piperazin-1-yl]-phenyl}-2-(1,5-dimethyl-3-phenyl-1H-pyrrol-2-yl)-2-oxo-acetamide] | < 1 | < 1 | < 1 | < 1 | < 1 | < 1 | < 1 | < 1 | < 1 | < 1 | < 1 | < 1
3 | Cc1cc(C)nc(N2CCN(c3ccc(NC(=O)C(=O)c4c(-c5ccco5)cc(C)n4C)cc3)CC2)c1 [Example 12, N-{4-[4-(4,6-Dimethyl-pyridin-2-yl)-piperazin-1-yl]-phenyl}-2-(3-furan-2-yl-1,5-dimethyl-1H-pyrrol-2-yl)-2-oxo-acetamide] | < 1 | < 1 | < 1 | < 1 | < 1 | < 1 | < 1 | < 1 | < 1 | < 1 | < 1 | < 1
4 | Cc1cc(C)nc(N2CCN(c3ccc(NC(=O)C(=O)c4c(C(C)C)cc(C)n4C)cc3)CC2)c1 [Example 14, N-{4-[4-(4,6-Dimethyl-pyridin-2-yl)-piperazin-1-yl]-phenyl}-2-(3-isopropyl-1,5-dimethyl-1H-pyrrol-2-yl)-2-oxo-acetamide] | < 1 | < 1 | < 1 | < 1 | < 1 | < 1 | < 1 | < 1 | < 1 | < 1 | < 1 | < 1
5 | Cc1cc(C)nc(N2CCN(c3ccc(NC(=O)C(=O)c4c(C5CCOCC5)cc(C)n4C)cc3)CC2)c1 [Example 15, N-{4-[4-(4,6-Dimethyl-pyridin-2-yl)-piperazin-1-yl]-phenyl}-2-[1,5-dimethyl-3-(tetrahydro-pyran-4-yl)-1H-pyrrol-2-yl]-2-oxo-acetamide] | < 1 | < 1 | < 1 | < 1 | < 1 | < 1 | < 1 | < 1 | < 1 | < 1 | < 1 | < 1
6 | Cc1cc(-c2ccccc2)c(C(=O)C(=O)Nc2cccc3ccccc23)n1C [Example 16, 2-(1,5-Dimethyl-3-phenyl-1H-pyrrol-2-yl)-N-naphthalen-1-yl-2-oxo-acetamide] | < 1 | < 1 | < 1 | < 1 | < 1 | < 1 | < 1 | < 1 | < 1 | 1 to 10 (≈ 2.71 to 27.1 µM) | < 1 | < 1
7 | Cc1cc(C)nc(N2CCN(c3ccc(NC(=O)C(=O)c4c(-c5ccccc5)cc(C)n4C)cc3COCCN(C)C)CC2)c1 [Example 17, N-{3-(2-Dimethylamino-ethoxymethyl)-4-[4-(4,6-dimethyl-pyridin-2-yl)-piperazin-1-yl]-phenyl}-2-(1,5-dimethyl-3-phenyl-1H-pyrrol-2-yl)-2-oxo-acetamide] | 1 to 10 (≈ 1.64 to 16.4 µM) | 1 to 10 (≈ 1.64 to 16.4 µM) | 1 to 10 (≈ 1.64 to 16.4 µM) | 1 to 10 (≈ 1.64 to 16.4 µM) | 1 to 10 (≈ 1.64 to 16.4 µM) | 1 to 10 (≈ 1.64 to 16.4 µM) | > 10 | > 10 | > 10 | > 10 | > 10 | > 10
8 | Cc1cc(C)nc(N2CCN(c3ccc(NC(=O)C(=O)c4c(-c5ccccc5)c(C)cn4C)cc3)CC2)c1 [Example 18, 2-(1,4-Dimethyl-3-phenyl-1H-pyrrol-2-yl)-N-{4-[4-(4,6-dimethyl-pyridin-2-yl)-piperazin-1-yl]-phenyl}-2-oxo-acetamide] | < 1 | < 1 | > 10 | < 1 | < 1 | < 1 | < 1 | < 1 | > 10 | < 1 | 1 to 10 (≈ 1.97 to 19.7 µM) | < 1
9 | Cc1cc(C)nc(N2CCN(c3ccc(NC(=O)C(=O)c4c(-c5ccccc5)cc(C)n4C)cc3COCCCN3CCN(C)CC3)CC2)c1 [Example 19, 2-(1,5-Dimethyl-3-phenyl-1H-pyrrol-2-yl)-N-{4-[4-(4,6-dimethyl-pyridin-2-yl)-piperazin-1-yl]-3-[3-(4-methyl-piperazin-1-yl)-propoxymethyl]-phenyl}-2-oxo-acetamide] | > 10 | > 10 | > 10 | > 10 | 1 to 10 (≈ 1.48 to 14.8 µM) | 1 to 10 (≈ 1.48 to 14.8 µM) | > 10 | > 10 | > 10 | > 10 | > 10 | > 10
10 | Cc1cc(C)nc(N2CCN(c3ccc(NC(=O)C(=O)c4c(-c5ccccc5)cc(C(C)C)n4C)cc3)CC2)c1 [Example 20, N-{4-[4-(4,6-Dimethyl-pyridin-2-yl)-piperazin-1-yl]-phenyl}-2-(5-isopropyl-1-methyl-3-phenyl-1H-pyrrol-2-yl)-2-oxo-acetamide] | > 10 | < 1 | > 10 | < 1 | > 10 | < 1 | > 10 | > 10 | > 10 | > 10 | > 10 | 1 to 10 (≈ 1.87 to 18.7 µM)
11 | Cc1cc(C)nc(N2CCN(c3ccc(NC(=O)C(=O)c4c(-c5ccccc5)cc(C)n4C)c(Cl)c3)CC2)c1 [Example 21, N-{2-Chloro-4-[4-(4,6-dimethyl-pyridin-2-yl)-piperazin-1-yl]-phenyl}-2-(1,5-dimethyl-3-phenyl-1H-pyrrol-2-yl)-2-oxo-acetamide] | < 1 | < 1 | < 1 | < 1 | < 1 | < 1 | < 1 | < 1 | < 1 | < 1 | < 1 | < 1

Source: patent publication US8993574B2, “Pyrrole antifungal agents” (F2G Ltd, priority 2008, dated 2015)
